Assay [1] concerns Trypanosoma cruzi. Description: Compound was tested for the inhibition of Trypanosoma cruzi epimastigote growth after 72 hours of treatment. It is filed as functional, organism-based.
For assay [2], the system named is Trypanosoma cruzi. Nature of the assay: Effective concentration required for the lysis of Trypanosoma cruzi trypomastigotes in blood stream after 24 hours of treatment. The assay is classed as functional, organism-based.
A short description of assay [3]: Inhibition of Peptidyl-prolyl cis-trans isomerase Trypanosoma cruzi cyclophilin (CL Brener strain, p19).

From ChEMBL document CHEMBL1137829, “In vitro anti-parasitic activity of Cyclosporin A analogs on Trypanosoma cruzi” (Bioorg Med Chem Lett, 2004) come the findings set out here.

SMILES strings stand for the structures.

For orientation: IC50 means the concentration needed to halve the response being measured. For orientation: EC50 means the concentration at which the effect is half-maximal. Low values mean a more potent agent, high ones a less potent agent. `CCC/C=C(/C)[C@@H](O)[C@H]1C(=O)N[C@@H]([C@@H](C)OCCCO)C(=O)N(C)CC(=O)N(C)[C@@H](CC(C)C)C(=O)N[C@@H](C(C)C)C(=O)N(C)[C@@H](CC(C)C)C(=O)N[C@@H](C)C(=O)N[C@H](C)C(=O)N(C)[C@@H](CC(C)C)C(=O)N(C)[C@@H](CC(C)C)C(=O)N(C)[C@@H](C(C)C)C(=O)N1C`: the IC50 stood at 18.4 µM in assay [1] (read-out: IC50) and 0.0221 µM in assay [3]. Besides, the response in assay [2] was half-maximal at 36.8 µM (EC50).

As for `CC[C@@H]1NC(=O)[C@H]([C@H](O)/C(C)=C\CCCOC)N(C)C(=O)[C@H](C(C)C)N(C)C(=O)[C@H](CC(C)C)N(C)C(=O)[C@H](CC(C)C)N(C)C(=O)[C@@H](C)NC(=O)[C@H](C)NC(=O)[C@H](CC(C)C)N(C)C(=O)[C@H](C(C)C)NC(=O)[C@H](CC(C)C)N(C)C(=O)CN(C)C1=O`, the IC50 stood at 33.8 µM in assay [1] (read-out: IC50) and 0.0255 µM in assay [3]. Moreover, the EC50 in assay [2] came out at 76.1 µM.

Consider `CC[C@@H]1NC(=O)[C@H]([C@H](O)C(C)C/C=C/c2ccccc2)N(C)C(=O)[C@H](C(C)C)N(C)C(=O)[C@H](CC(C)C)N(C)C(=O)[C@H](CC(C)C)N(C)C(=O)[C@@H](C)NC(=O)[C@H](C)NC(=O)[C@H](CC(C)C)N(C)C(=O)[C@H](C(C)C)NC(=O)[C@H](CC(C)C)N(C)C(=O)CN(C)C1=O` (stereo not given in full), for which the IC50 was found to be 0.82 µM in assay [1] (read-out: IC50) and 0.0125 µM in assay [3]. In assay [2], a half-maximal response (EC50) required 0.97 µM.

With `CC[C@@H]1NC(=O)[C@H]([C@H](O)C(C)CCCc2ccccc2)N(C)C(=O)[C@H](C(C)C)N(C)C(=O)[C@H](CC(C)C)N(C)C(=O)[C@H](CC(C)C)N(C)C(=O)[C@@H](C)NC(=O)[C@H](C)NC(=O)[C@H](CC(C)C)N(C)C(=O)[C@H](C(C)C)NC(=O)[C@H](CC(C)C)N(C)C(=O)CN(C)C1=O` (stereo not given in full), the IC50 came to 3.41 µM in assay [1] (read-out: IC50) and 0.0133 µM in assay [3]. Also, in assay [2], the midpoint of the response, the EC50, lay at 2.66 µM.

Turning to `C/C=C/CC(C)[C@@H](O)[C@H]1C(=O)N[C@@H](CC)C(=O)N(C)CC(=O)N(C)[C@@H](CC(C)C)C(=O)N[C@@H](C(C)C)C(=O)N(C)[C@@H](CC(C)C)C(=O)N[C@@H](C)C(=O)N[C@H]([C@H](C)O)C(=O)N(C)[C@@H](CC(C)C)C(=O)N(C)[C@@H](CC(C)C)C(=O)N(C)[C@@H](C(C)C)C(=O)N1C` (stereo not given in full), the IC50 amounted to 6.93 µM in assay [1] (read-out: IC50) and 0.0169 µM in assay [3]. In addition, in assay [2], the EC50 turned out to be 13.4 µM.

`CC[C@@H]1NC(=O)[C@H]([C@H](O)/C(C)=C\CCC(=O)OC(C)C)N(C)C(=O)[C@H](C(C)C)N(C)C(=O)[C@H](CC(C)C)N(C)C(=O)[C@H](CC(C)C)N(C)C(=O)[C@@H](C)NC(=O)[C@H](C)NC(=O)[C@H](CC(C)C)N(C)C(=O)[C@H](C(C)C)NC(=O)[C@H](CC(C)C)N(C)C(=O)CN(C)C1=O`: the IC50 in assay [1] (read-out: IC50) turned out to be 7.64 µM. The same molecule came in with an EC50 in assay [2] of 58.6 µM.

Turning to `CC[C@@H]1NC(=O)[C@H]([C@H](O)/C(C)=C\CCCN=[N+]=[N-])N(C)C(=O)[C@H](C(C)C)N(C)C(=O)[C@H](CC(C)C)N(C)C(=O)[C@H](CC(C)C)N(C)C(=O)[C@@H](C)NC(=O)[C@H](C)NC(=O)[C@H](CC(C)C)N(C)C(=O)[C@H](C(C)C)NC(=O)[C@H](CC(C)C)N(C)C(=O)CN(C)C1=O`, the results for the IC50 in assay [1] (read-out: IC50) and in assay [3] were 10.6 µM and 0.0232 µM, respectively. Also, in assay [2], the EC50 was determined as 7.98 µM.

Take `CCC/C=C(/C)[C@@H](O)[C@H]1C(=O)N[C@@H](CC)C(=O)N(C)CC(=O)N(C)[C@@H](CC(C)CO)C(=O)N[C@@H](C(C)C)C(=O)N(C)[C@@H](CC(C)C)C(=O)N[C@@H](C)C(=O)N[C@H](C)C(=O)N(C)[C@@H](CC(C)C)C(=O)N(C)[C@@H](CC(C)C)C(=O)N(C)[C@@H](C(C)C)C(=O)N1C` (stereo not given in full): the results for the IC50 in assay [1] (read-out: IC50) and in assay [3] were 11.4 µM and 0.0193 µM, respectively. For the same molecule, the midpoint of the response in assay [2], the EC50, lay at 153 µM.

`C/C=C/C[C@@H](C)[C@@H](O)[C@H]1C(=O)N[C@@H](CC)C(=O)N(C)CC(=O)N(C)[C@@H](CC(C)C)C(=O)N[C@@H](C(C)C)C(=O)N(C)[C@@H](CC(C)C)C(=O)N[C@@H](C)C(=O)N[C@H](C)C(=O)N(C)[C@@H](CC(C)C)C(=O)N(C)[C@@H](CC(C)C)C(=O)N(C)[C@@H](C(C)C)C(=O)N1C` [CYCLOSPORINE] registered an IC50 in assay [1] of 5.39 µM. Besides, it took 7.19 µM to reach a half-maximal effect in assay [2] (EC50).
